Experimental data as given in ChEMBL document CHEMBL1147029, “Probing binding requirements of NAD kinase with modified substrate (NAD) analogues” (Bioorg Med Chem Lett, 2007).

How the values were obtained:
[1] = target: T1, NAD kinase (Mycobacterium tuberculosis) (UniProt P9WHV7); assay: Inhibition of Mycobacterium tuberculosis NAD kinase at 1 mM
T1 sequence (whole entry): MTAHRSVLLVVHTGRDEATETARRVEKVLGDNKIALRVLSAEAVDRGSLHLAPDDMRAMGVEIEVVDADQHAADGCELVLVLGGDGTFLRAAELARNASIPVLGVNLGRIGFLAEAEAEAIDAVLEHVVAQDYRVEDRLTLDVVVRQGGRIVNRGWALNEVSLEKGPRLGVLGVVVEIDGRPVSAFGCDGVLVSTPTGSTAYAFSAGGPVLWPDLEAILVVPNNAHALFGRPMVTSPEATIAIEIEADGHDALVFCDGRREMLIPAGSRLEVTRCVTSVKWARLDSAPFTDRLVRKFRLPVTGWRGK

[2] = target: T1, NAD kinase (Mycobacterium tuberculosis); assay: Inhibition of Mycobacterium tuberculosis NAD kinase at 2 mM

`O=C(CBr)c1ccccn1` was tested, and the inhibition [1] was 63%.

Compound `NC(=O)c1ccc[n+]([C@@H]2O[C@H](COP(=O)(O)OP(=O)(O)OC[C@H]3O[C@@H](n4cnc5c(N)ncnc54)[C@@H](F)[C@@H]3O)[C@@H](O)[C@H]2O)c1` has an inhibition [1] of under 10%.

`O=C(CBr)c1ccncc1` showed an inhibition [1] of 40%.

`O=C(CBr)c1cccnc1` gave an inhibition [1] of 30%.

`NC(=O)c1cccc([C@@H]2O[C@H](COP(=O)(O)OP(=O)(O)OC[C@H]3O[C@@H](n4cnc5c(N)ncnc54)[C@H](O)[C@@H]3O)[C@@H](O)[C@H]2O)c1` gave an inhibition [1] of under 10% and an inhibition [2] of 37%.

`NC(=O)c1ccc[n+]([C@@H]2O[C@H](COP(=O)(O)OP(=O)(O)OC[C@H]3O[C@@H](n4cnc5c(N)ncnc54)[C@H](F)[C@@H]3O)[C@@H](O)[C@H]2O)c1` showed an inhibition [1] of under 10%.

`NC(=O)c1ccc[n+]([C@@H]2O[C@H](COP(=O)(O)OP(=O)(O)OC[C@H]3O[C@@H](n4cnc5c(N)ncnc54)[C@@H](O)[C@@H]3O)[C@@H](O)[C@H]2O)c1` gave an inhibition [1] of 40%.
